From ChEMBL document CHEMBL1125025, “11 beta-methoxy-, 11 beta-ethyl- and 17 alpha-ethynyl-substituted 16 alpha-fluoroestradiols: receptor-based imaging agents with enhanced uptake efficiency and selectivity” (J Med Chem, 1990)

Tests used:
[1] = target: T1, Alpha-fetoprotein (Rattus norvegicus) (UniProt P02773); assay: Binding affinity against Alphafetoprotein (AFP), in rodents.; design: reference not given here
T1 sequence (whole entry): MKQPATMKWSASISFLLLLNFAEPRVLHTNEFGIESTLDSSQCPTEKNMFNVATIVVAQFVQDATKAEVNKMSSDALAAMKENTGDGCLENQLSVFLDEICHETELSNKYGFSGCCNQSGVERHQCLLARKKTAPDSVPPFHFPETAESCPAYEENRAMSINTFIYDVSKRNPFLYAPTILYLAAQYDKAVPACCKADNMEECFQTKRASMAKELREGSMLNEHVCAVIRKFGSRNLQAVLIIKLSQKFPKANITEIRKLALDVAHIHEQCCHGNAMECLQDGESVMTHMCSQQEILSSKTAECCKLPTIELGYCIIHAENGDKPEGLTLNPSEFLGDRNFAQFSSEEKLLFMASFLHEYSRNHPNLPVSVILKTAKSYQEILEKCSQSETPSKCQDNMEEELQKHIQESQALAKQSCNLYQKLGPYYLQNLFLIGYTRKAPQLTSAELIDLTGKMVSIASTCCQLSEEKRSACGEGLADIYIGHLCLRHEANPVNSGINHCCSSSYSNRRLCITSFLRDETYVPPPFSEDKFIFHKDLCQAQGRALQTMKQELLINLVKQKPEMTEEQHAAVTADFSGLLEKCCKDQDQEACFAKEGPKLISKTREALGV

[2] = target: T2, Sex hormone-binding globulin (Homo sapiens) (UniProt P04278); assay: Binding affinity against Sex steroid binding protein(SBP) of human serum; design: reference not given here
T2 sequence (whole entry): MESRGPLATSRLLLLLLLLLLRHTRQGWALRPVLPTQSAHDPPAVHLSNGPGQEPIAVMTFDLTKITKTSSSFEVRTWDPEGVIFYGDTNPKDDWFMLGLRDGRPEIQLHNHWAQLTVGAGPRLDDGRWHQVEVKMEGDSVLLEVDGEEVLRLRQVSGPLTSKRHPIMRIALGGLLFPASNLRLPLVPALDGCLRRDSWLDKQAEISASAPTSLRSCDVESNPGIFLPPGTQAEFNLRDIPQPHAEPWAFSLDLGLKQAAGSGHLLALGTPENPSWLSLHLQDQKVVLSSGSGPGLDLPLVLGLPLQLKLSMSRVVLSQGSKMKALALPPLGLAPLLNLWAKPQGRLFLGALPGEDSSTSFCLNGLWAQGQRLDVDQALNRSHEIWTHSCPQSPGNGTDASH

In the case of C[C@]12CC[C@@H]3c4ccc(O)cc4CC[C@H]3[C@@H]1CC[C@@H]2O, the relative binding affinity (RBA) [1] is reported as 100 and the relative binding affinity (RBA) [2] is reported as 100.
CO[C@H]1C[C@]2(C)[C@@H](O)[C@H](F)C[C@H]2[C@@H]2CCc3cc(O)ccc3[C@H]21 gave a relative binding affinity (RBA) [1] of 0.51 and a relative binding affinity (RBA) [2] of 0.53.
For CO[C@H]1C[C@]2(C)[C@@H](O)CC[C@H]2[C@@H]2CCc3cc(O)ccc3[C@H]21, the relative binding affinity (RBA) [1] was 0.26 and the relative binding affinity (RBA) [2] was 1.72.
C#C[C@]1(O)[C@H](F)C[C@H]2[C@@H]3CCc4cc(O)ccc4[C@H]3CC[C@@]21C gave a relative binding affinity (RBA) [1] of 0.94 and a relative binding affinity (RBA) [2] of 0.43.
Molecule C[C@]12CC[C@@H]3c4ccc(O)cc4CC[C@H]3[C@@H]1C[C@@H](F)[C@@H]2O has a relative binding affinity (RBA) [1] of 101 and a relative binding affinity (RBA) [2] of 9.5.
CC[C@H]1C[C@]2(C)[C@@H](O)[C@H](F)C[C@H]2[C@@H]2CCc3cc(O)ccc3[C@@H]12 was tested, and the relative binding affinity (RBA) [1] was 1.47 and the relative binding affinity (RBA) [2] was 2.24.
CC[C@H]1C[C@]2(C)[C@@H](O)CC[C@H]2[C@@H]2CCc3cc(O)ccc3[C@@H]12 showed a relative binding affinity (RBA) [1] of 1.21 and a relative binding affinity (RBA) [2] of 40.8.
In the case of C#C[C@]1(O)CC[C@H]2[C@@H]3CCc4cc(O)ccc4[C@H]3CC[C@@]21C, the relative binding affinity (RBA) [1] is reported as 3.51 and the relative binding affinity (RBA) [2] is reported as 1.81.
